Laboratory results published in article PMC6394990, “Detailed characterization of the solution kinetics and thermodynamics of biotin, biocytin and HABA binding to avidin and streptavidin” (PLoS ONE, 2019).
Values joined by “and” are separate entries in the source; they are usually repeats but may differ in a detail not shown here. Equal entries are not always repeated. Where two headings read alike, the source gives them in different places. Marks after values point to notes of the source that are not given here.

Tests used:
[1] = biological target: T1, avidin (AV) (Gallus gallus, UniProt P02701); test: Relaxation kinetics of unlabeled biotin reacting with the AV-HABA complex; assay type: binding; settings: pH 8 and 23°C; read-out: konB, association rate of unlabeled B7 to the final site (AV-HABA3)
T1 construct: purchased Calbiochem (La Jolla, CA)
T1 sequence (P02701 25-152): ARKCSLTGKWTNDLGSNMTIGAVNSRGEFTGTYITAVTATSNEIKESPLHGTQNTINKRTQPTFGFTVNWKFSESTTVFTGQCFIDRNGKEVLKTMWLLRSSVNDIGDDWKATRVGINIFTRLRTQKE
Protocol: All of the following protein concentrations are presented on a binding site basis, thus in the case of the HABA association reactions for AV were measured at 23.0 ± 0.1°C with a concentration of 87 μM HABA and 7.7 μM AV. The AV-HABA relaxation reactions were conducted with a preformed AV-HABA complex made up of 200 μM HABA and 10 μM AV, flowed against varying amounts of B7 from 100 μM up to 4000 μM for a [HABA]/[B7] ratio that ranged from 0.05 to 2.
The relaxation experiments were prepared at concentrations in which HABA occupies all sites (AV-HABA4). Biotin replaces HABA relative to the koff of the dye as shown for the first step (Eq 1) and then repeated for all sites. Having greater affinity, B7 occupies all sites at the end of the reaction and the measured kon is related to the affinities of the ligand bound protein.
The reaction is monitored by the HABA absorbance changes at 500 nm as it is replaced by unlabeled B7; yielding the relaxation constant of the reaction (Relaxation, Eq 2) which contains information of the B7 association rate constant of the open binding site, k1AV−HABA3 to form a full saturated complex (AV-HABA4) and the dissociation rate of that full complex, k−1AV−HABA4 , to yield a complex with three HABA molecules (AV-HABA3). In the subsequent steps, B7 replaces HABA as the ligand but the release of HABA creates an unoccupied site that remains in the same state. In summary, the experiment was designed to acquire the pseudo-first order association rate constant of B7 binding ( konB ) to the solely free binding site in a complex occupied by three HABA molecules (AV-HABA3).
The reciprocal of the relaxation constant (1/Relaxation) is plotted vs. the [HABA]/[B] concentration ratio (Eq 3) allowing to calculate: k−1AV−HABA4 and k1AV−HABA3 by solving for the intercept ( 1/k−1AV−HABA4 ) and the respective slope: m=k1AV−HABA3/(k−1AV−HABA4∙konB) . The exponential decays were analyzed by the method of Foss. There was no departure from simple first order decay in the relaxation, justifying the use of the following model and equations.

[2] = biological target: T2, streptavidin (SAV) (Streptomyces avidinii, UniProt P22629); test: Literature kinetics, affinity and dissociation (backward) activation parameters; assay type: binding; settings: SAV-B7, average of the reported values
T2 construct: purchased Sigma Aldrich (St. Louis, MO)
T2 sequence (P22629 25-183): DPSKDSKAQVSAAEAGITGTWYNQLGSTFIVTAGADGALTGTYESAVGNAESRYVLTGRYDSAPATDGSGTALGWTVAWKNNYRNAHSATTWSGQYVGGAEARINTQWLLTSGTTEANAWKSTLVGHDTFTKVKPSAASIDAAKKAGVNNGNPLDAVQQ

[3] = biological target: T1, avidin (AV); test: Literature calorimetry reaction thermodynamics; assay type: binding; settings: AV-B7, average of the reported values
[4] = biological target: T2, streptavidin (SAV); test: Literature calorimetry reaction thermodynamics; assay type: binding; settings: SAV-B7, average of the reported values
[5] = biological target: T1, avidin (AV); settings: AV-B7, cited from earlier work

O=C(O)CCCC[C@@H]1SC[C@@H]2NC(=O)N[C@@H]21 [B7, d-biotin]
kon [1]: 5.3e+06 ± 9e+11 M⁻¹ s⁻¹
Ea^Backward, averaged value [2]: 29.4 ± 2.6 kcal/mol and 29.4 kcal/mol
ΔG° ^ǂ, Backward, averaged value [2]: 23.6 ± 1.5 kcal/mol and 23.6 kcal/mol
ΔS° ^ǂ, Backward, averaged value [2]: 24.8 ± 4.5 cal/mol°K and 24.8 cal/mol°K
ΔG° ^ǂ, Backward, averaged value ([2]; listed as B): 23.6 ± 1.0 kcal/mol
ΔS° ^ǂ, Backward, averaged value ([2]; listed as B): 24.8 ± 2.5 cal/mol°K
ΔG°rxn, averaged value [3]: -20.7 ± 0.3 kcal/mol
ΔH°rxn, averaged value [3]: -23.2 ± 1.7^d kcal/mol and -23.2 ± 1.7 d kcal/mol
ΔG°rxn, averaged value ([3]; listed as B): -20.7 ± 1.0 kcal/mol
ΔH°rxn, averaged value ([3]; listed as B): -23.2 ± 1.0 kcal/mol
ΔG°rxn, averaged value [4]: -18.2 ± 0.2 kcal/mol
ΔH°rxn, averaged value [4]: -24.8 ± 2.0 kcal/mol
ΔG°rxn, averaged value ([4]; listed as B): -18.2 ± 0.1 kcal/mol
ΔH°rxn ([5]; ref 39): -26.7 kcal/mol and -26.7 36 kcal/mol
ΔH°rxn ([5]; ref 39, listed as B): -26.7 20 kcal/mol
ΔG°rxn ([5]; ref 76): -20.5 kcal/mol and -20.5 77 kcal/mol
ΔH°rxn ([5]; ref 76): -20.3 ± 0.3 kcal/mol and -20.3 ± 0.377 kcal/mol
ΔG°rxn ([5]; ref 76, listed as B): -20.5 50 kcal/mol
ΔH°rxn ([5]; ref 76, listed as B): -20.3 ± 0.3 50 kcal/mol
ΔH°rxn ([5]; ref 77): -22.5 ± 0.1 kcal/mol and -22.5 ± 0.1 78 kcal/mol
ΔH°rxn ([5]; ref 77, listed as B): -22.5 ± 0.1 52 kcal/mol
ΔG°rxn ([5]; ref 78): -20.8 kcal/mol and -20.8 79 kcal/mol
ΔH°rxn ([5]; ref 78): -23.4 ± 0.3 kcal/mol and -23.4 ± 0.3 79 kcal/mol
ΔS°rxn ([5]; ref 78): -8.9 [78] cal/mol°K and -8.9 79 cal/mol°K
ΔG°rxn ([5]; ref 78, listed as B): -20.8 51 kcal/mol
ΔH°rxn ([5]; ref 78, listed as B): -23.4 ± 0.3 51 kcal/mol
ΔS°rxn ([5]; ref 78, listed as B): -8.9 51 cal/mol°K
